# Reference: patent US20220264927A1, “ORAL DOSE COMPOSITIONS OF TRIBUTYRIN FOR THE GENERATION OF BUTYRATE IN THE GUT” (NutriScience Innovations LLC, priority 2021, published 2022)
# Where two headings read alike, the source gives them in different places.
# Tests used:
# Caenorhabditis elegans = format: in vivo
# Description: In the second type of experiment, an animal model system was used to study changes in the gut microbiome behavior. Caenorhabditis elegans (C. elegans), a nematode commonly used as an organism model, was used in the present study. Reduction of oxidative stress was determined in the C. elegans model. Butyrate has previously been shown in rodent and porcine studies to ameliorate oxidative stress in the intestine generated via hydrogen peroxide or Diquat dibromide exposure. Thus, an oxidative stress assay is a rapid indirect method of determining whether the tributyrin doses proposed in this study can produce beneficial butyrate in vivo.
# Previous studies have shown that this concentration of Paraquat will kill adult C. elegans in liquid culture within 24 hours of exposure via the generation of superoxide anions that lead to oxidative damage of vital cellular components. The standard methods of growing the animals, treating with Paraquat, washing out the Paraquat, and observing survival at 12 hours post Paraquat treatment have been previously described. One group received only Paraquat as a positive control, while a second group received nothing as a negative control, and all others received the therapeutic treatments. […]
# In the C. elegans series of studies, the human equivalent dose (HED) of tributyrin was determined in the following manner. A typical human stomach size of 250 ml was used as a baseline. […] Tributyrin is soluble in DMSO up to a maximum concentration of 100 mg/ml, which is equivalent to 330.73 mM. C. elegans can be exposed to a 1% solution of DMSO in aqueous standard nematode growth media without compromising its viability. […]
# [1] = tested on: gut microbiota starter cultures (human feces from 6 volunteers); assay: ex vivo simulation of colon fermentation with human fecal starter cultures; butyrate generation by chromatography; format: cell-based; conditions: for Butyrate Generation: after 48 hours of fermentation
# Description: In the first type of experiment, an ex-vivo model system is used. In this model system, an ex vivo simulation of the fermentation that occurs in the colon was used. Human feces from 6 volunteers were used as a gut microbiota starter cultures. The test materials were added to this system and butyrate generation was determined after 48 hours of fermentation, compared to controls for each set. Butyrate generation was measured using chromatography.
# In this series of experiments the human equivalent dose (HED) was determined to be 1 gram/day of ingested prebiotic in-vivo corresponds to approximately 1 g/L in-vitro dose. Therefore a 10 mg/ml in-vitro dose is equivalent to 10 mg/day HED.
# [2] = solubility of tributyrin in DMSO; format: physicochemical; conditions: organic solvent or mixture, equivalent of 100 mg/ml, read-out: maximum concentration soluble in DMSO
# Description: In the C. elegans series of studies, the human equivalent dose (HED) of tributyrin was determined in the following manner. A typical human stomach size of 250 ml was used as a baseline. 100 mg per serving per day of tributyrin for a 60 Kg adult is equivalent to 400 μg/ml (˜1.32 mM). Tributyrin is soluble in DMSO up to a maximum concentration of 100 mg/ml, which is equivalent to 330.73 mM. C. elegans can be exposed to a 1% solution of DMSO in aqueous standard nematode growth media without compromising its viability. Doses between 10 mg HED [40 μg/ml (˜0.13 mM)], and 100 mg HED [400 μg/ml (˜1.32 mM)] were used.
# [3] = cited from earlier work
# [4] = after ingestion, cited from earlier work
# [5] = tested on: intestinal barrier and liver; conditions: ethanol-exposed mice, diet supplemented 5 mM, 10 days; cited from earlier work
# [6] = tested on: mucosal damage in experimental colitis; conditions: DSS colitis, 5 g/kg diet, cited from earlier work
# [7] = Example 4, probiotic alone, test dose 5*10^7 CFU/mL, blank 2.78
compound,measurement,setting,value
"C[n+]1ccc(-c2cc[n+](C)cc2)cc1 [Paraquat, reference compound]",% Survival of Worms at 12 hours,"Caenorhabditis elegans; Paraquat 250 nM alone (positive control), negative control 98.69",67.63%
"CCCC(=O)OCC(COC(=O)CCC)OC(=O)CCC [Tributyrin, propane-1,2,3-triyl tributyrate]",Butyrate Generation,"[1]; Example 1, test dose 50 mg/L (HED 50 mg per day), blank 2.86",3.22 mM
same,Butyrate Generation,"[1]; Example 1, test dose 100 mg/L (HED 100 mg per day), blank 2.86",3.73 mM
same,butyrate generation compared with inulin at HED 4 g/day,"[1]; Example 1, tributyrin HED 50 to 100 mg/day, in words",about the same amount of butyrate
same,butyrate generation compared with XOS at HED 1 g/day,"[1]; Example 2, tributyrin 100 mg/day HED, in words",equivalent butyrate generation
same,Butyrate Generation,"[1]; Examples 2 and 4, test dose 100 mg/L (HED 100 mg per day), blank 2.78",3.51 mM
same,oxidative stress,"Caenorhabditis elegans; Example 3, tributyrin HED 10 and 100 mg/day, in words",significant reduction in oxidative stress
same,% Survival of Worms at 12 hours,"Caenorhabditis elegans; test dose 40 ug/mL (HED 10 mg per day), no Paraquat",97.24%
same,% Survival of Worms at 12 hours,"Caenorhabditis elegans; test dose 40 ug/mL + Paraquat 250 nM (HED 10 mg per day), Paraquat alone 67.63",68.86%
same,% Survival of Worms at 12 hours,"Caenorhabditis elegans; test dose 400 ug/mL (HED 100 mg per day), no Paraquat",99.23%
same,% Survival of Worms at 12 hours,"Caenorhabditis elegans; test dose 400 ug/mL + Paraquat 250 nM (HED 100 mg per day), Paraquat alone 67.63",73.63%
same,solubility,[2],331 mM
same,maximum concentration soluble in DMSO,[3],≤ 100 mg/mL
same,peak time of butyrate in plasma,[4]; in words,on the order of hours
same,liver injury,[5],mitigated liver injury
same,tight-junction (TJ) protein staining in proximal colon and ileum,[5],maintained immunoreactive staining intensity of TJ proteins
same,mucosal architecture,[6]; versus non-supplemented mice,improved mucosal architecture
same,intestinal permeability,[6],reduced intestinal permeability
same,oxidative stress (hydroperoxide),[6],lower level of hydroperoxide
"CCCC(=O)[O-].[Na+] [sodium butyrate, Sodium butyrate, reference compound]",peak time of butyrate in plasma,[4],15 to 45 min
Inulin [reference compound],Butyrate Generation,"[1]; Example 1, test dose 4 g/L (HED 4 g per day), blank 2.86",3.62 mM
Lacticaseibacillus rhamnosus GG [LGG],Butyrate Generation,[1]; [7],3.15 mM
Limosilactobacillus reuteri,Butyrate Generation,[1]; [7],2.72 mM
"partially hydrolyzed guar gum [PHGG, reference compound]",% Survival of Worms at 12 hours,"Caenorhabditis elegans; test dose 20 mg/mL (HED 5 g per day), no Paraquat",96.24%
same,% Survival of Worms at 12 hours,"Caenorhabditis elegans; test dose 20 mg/mL + Paraquat 250 nM (HED 5 g per day), Paraquat alone 67.63",49.39%
same,% Survival of Worms at 12 hours,"Caenorhabditis elegans; test dose 40 mg/mL (HED 10 g per day), no Paraquat",96.27%
same,% Survival of Worms at 12 hours,"Caenorhabditis elegans; test dose 40 mg/mL + Paraquat 250 nM (HED 10 g per day), Paraquat alone 67.63",62.99%
"xylooligosaccharide [XOS, reference compound]",Butyrate Generation,"[1]; Examples 2 and 4, test dose 1 g/L (HED 1 g per day), blank 2.78",3.30 mM
